Measured values reported in PMC9820316, “Novel Arylpiperazine Derivatives of Salicylamide with α1-Adrenolytic Properties Showed Antiarrhythmic and Hypotensive Properties in Rats” (International Journal of Molecular Sciences, 2022).
Marks after values point to notes of the source that are not given here.

How the values were obtained:
normal ECG in rats = experiment: Effect on a normal electrocardiogram in rats; assay type: in vivo, rat; conditions: 5 mg/kg iv; for HR—heart rate / PQ interval / QRS complex / QTc (Bazzett's formula): mean ± SD; for PQ interval / QRS complex / QTc (Bazzett's formula): in ms (unit assumed)
Protocol: The procedure was performed to exclude the negative effects of the tested compounds on the normal ECG, according to the method described earlier. […] Firstly, animals were anesthetized with thiopental (75 mg/kg ip). […] The influence on PQ, QTc interval, QRS complex, and heart rate was evaluated. The Bazzett’s formula: QTc = QT/√RR was used to calculate QTc. All the studied compounds were administered at a dose of 5 mg/kg.

[1] = tested on: adrenaline-induced arrhythmia model in rats; experiment: Therapeutic antiarrhythmic activity in adrenaline-induced arrhythmia; conditions: 5 mg/kg iv immediately after adrenaline 20 µg/kg; number of animals with event
Protocol: The experiments were carried out according to the method described by Szekeres and Papp [71]. The heart rhythm disturbances, such as extrasystoles, conduction blocks, and bradycardia, were induced by iv injection of adrenaline (20 µg/kg) to anesthetized rats (thiopental, 75 mg/kg, ip). […] The Aspel ASCARD apparatus (standard II lead, with a tape of speed 50 mm/s and voltage calibration of 1 mV = 1 cm) was used for the ECG measurements. The ECG was recorded during the first 2 min and in the 5th, 10th, and 15th min after the adrenaline injection (Figure 3B). The lack or decreased amount of extrasystoles, atrioventricular blocks, and bradycardia in the ECG recordings compared to the control group was the criterion of antiarrhythmic activity [72].
Automated ECG waveform analysis was evaluated as described earlier [55], using Eleven Maze software version 0.1 from Eleven Products Sp. z o.o. […] The software, under expert supervision, recognized and classified the heart rhythm irregularities. It also calculated PQ, QRS, QTc, and rate parameters.

[2] = tested on: calcium chloride-induced arrhythmia model in rats; experiment: Prophylactic antiarrhythmic activity in calcium chloride-induced arrhythmia; assay type: in vivo, rat; conditions: 5 mg/kg iv 15 min before calcium chloride 140 mg/kg; number of animals with event
[3] = tested on: pressor response to methoxamine in rats; experiment: Influence on blood vasopressor response to methoxamine in rats; assay type: in vivo, rat; conditions: 5 mg/kg iv, methoxamine 150 μg/kg before and 5 min after compound
In short: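 Anaesthetised (thiopental 75 mg/kg ip) normotensive Wistar rats, carotid artery cannulated. Pressor response to methoxamine (150 µg/kg, iv) recorded before and 5 min after test compound, given at its lowest hypotensive dose, after 15-min stabilisation.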

[4] = tested on: adrenaline-induced arrhythmia model in rats; experiment: Prophylactic antiarrhythmic activity in adrenaline-induced arrhythmia; assay type: in vivo, rat; conditions: for Blocks / Bradycardia / Extrasystoles / Mortality: number of animals with event
α1-adrenergic receptors = experiment: α1-adrenoceptor radioligand binding assay ([3H]-prazosin, rat cortex); conditions: rat cortex tissue, mean ± SEM
In short: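 Rat cerebral cortex membranes in 50 mM Tris-HCl pH 7.6, with 7–8 compound concentrations in duplicate. Nonspecific binding defined by 10 μM phentolamine for [3H]-prazosin (α1) or 10 μM clonidine for [3H]-clonidine (α2). Filtration and scintillation counting; Ki calculated.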

normotensive rats = experiment: Influence on blood pressure in the normotensive rats; assay type: in vivo, rat; conditions: for DBP—diastolic blood pressure / SBP—systolic blood pressure: mean ± SD
Protocol: The experiment was performed according to the method described earlier. Normotensive Wistar rats were anesthetized with thiopental (75 mg/kg ip). The right carotid artery was cannulated with a polyethylene tube filled with heparin solution, using a Datamax apparatus (Columbus Instruments, Columbus, OH, USA). After 15 min of the stabilization period, the studied compounds were administered iv, and their effect on systolic and diastolic blood pressure was evaluated (Figure 4A).

[5] = 0 min (prior to administration)
[6] = 0.25 mg/kg iv 15 min before adrenaline 20 μg/kg
[7] = 0.5 mg/kg iv 15 min before adrenaline 20 μg/kg
[8] = 1 mg/kg iv 15 min before adrenaline 20 μg/kg
[9] = 2.5 mg/kg iv, 0 min (before administration)
[10] = 5.0 mg/kg iv, 0 min (before administration)

`Cl.NC(=O)c1ccccc1OCCCCCCN1CCN(c2cccc(Cl)c2)CC1` [JJGW03, 2-{6-[4-(3-chlorophenyl)piperazin-1-ylo]hexoxy}benzamide hydrochloride] was tested, and the “effect on the heart rate during the ECG recording” value (normal ECG in rats) was “did not affect the heart rate”, the “HR—heart rate” value (normal ECG in rats; [5]) was 286.6 ± 45.7 and the PQ interval (normal ECG in rats; [5]) was 41.6 ± 2.3. For the same molecule, the QRS complex (normal ECG in rats; [5]) was 39.6 ± 4.7, the “QTc (Bazzett's formula)” value (normal ECG in rats; [5]) was 177.6 ± 12.0 and the “HR—heart rate” value (normal ECG in rats; 5 min) was 289.1 ± 20.2. For the same molecule, the PQ interval (normal ECG in rats; 5 min) was 41.4 ± 1.6, the QRS complex (normal ECG in rats; 5 min) was 39.3 ± 3.9 and the “QTc (Bazzett's formula)” value (normal ECG in rats; 5 min) was 188.7 ± 16.3. The “HR—heart rate” value (normal ECG in rats; 10 min) was 279.9 ± 15.7, the PQ interval (normal ECG in rats; 10 min) was 40.2 ± 1.7 and the QRS complex (normal ECG in rats; 10 min) was 40.8 ± 7.1. For the same molecule, the “QTc (Bazzett's formula)” value (normal ECG in rats; 10 min) was 174.8 ± 7.3, the “HR—heart rate” value (normal ECG in rats; 15 min) was 271.9 ± 18.2 and the PQ interval (normal ECG in rats; 15 min) was 40.0 ± 0.5. The QRS complex (normal ECG in rats; 15 min) was 40.4 ± 5.2, the “QTc (Bazzett's formula)” value (normal ECG in rats; 15 min) was 178.1 ± 15.0 and the Blocks [1] was 3/5. The Bradycardia [1] was 1/5, the Mortality [1] was 0/5 and the Blocks [2] was 6/6. For the same molecule, the Bradycardia [2] was 6/6, the Extrasystoles [2] was 6/6 and the Fibrillations [2] was 4/6. The Mortality [2] was 5/6, the “attenuation of the methoxamine pressor response” value [3] was 99% and the Blocks [4, 6] was 5/5. For the same molecule, the Bradycardia [4, 6] was 5/5, the Extrasystoles [4, 6] was 5/5 and the Mortality [4, 6] was 4/5. For the same molecule, the Blocks [4, 7] was 5/5, the Bradycardia [4, 7] was 4/5 and the Extrasystoles [4, 7] was 4/5. The Mortality [4, 7] was 4/5, the Blocks [4, 8] was 4/5 and the Bradycardia [4, 8] was 1/5. For the same molecule, the Extrasystoles [4, 8] was 4/5, the Mortality [4, 8] was 0/5 and the ED50 ([4]; prophylactic, iv 15 min before adrenaline 20 μg/kg, confidence limits in brackets (Litchfield and Wilcoxon)) was 0.36 (0.08–1.56) mg/kg. For the same molecule, the “Adrenergic Receptors—pKi α1” value (α1-adrenergic receptors) was 8.11 ± 0.01, the “DBP—diastolic blood pressure” value (normotensive rats; [9]) was 89.3 ± 15.6 mmHg and the “SBP—systolic blood pressure” value (normotensive rats; [9]) was 123.8 ± 17.4 mmHg. For the same molecule, the “DBP—diastolic blood pressure” value (normotensive rats; 2.5 mg/kg iv, 5 min) was 83.3 ± 12.8 mmHg, the “SBP—systolic blood pressure” value (normotensive rats; 2.5 mg/kg iv, 5 min) was 112.5 ± 13.8 mmHg and the “DBP—diastolic blood pressure” value (normotensive rats; 2.5 mg/kg iv, 10 min) was 84.8 ± 14.7 mmHg. For the same molecule, the “SBP—systolic blood pressure” value (normotensive rats; 2.5 mg/kg iv, 10 min) was 109.8 ± 13.5 mmHg, the “DBP—diastolic blood pressure” value (normotensive rats; 2.5 mg/kg iv, 20 min) was 86.0 ± 15.8 mmHg and the “SBP—systolic blood pressure” value (normotensive rats; 2.5 mg/kg iv, 20 min) was 108.8 ± 15.6 mmHg. For the same molecule, the “DBP—diastolic blood pressure” value (normotensive rats; 2.5 mg/kg iv, 30 min) was 85.5 ± 14.7 mmHg, the “SBP—systolic blood pressure” value (normotensive rats; 2.5 mg/kg iv, 30 min) was 111.8 ± 20.5 mmHg and the “DBP—diastolic blood pressure” value (normotensive rats; 2.5 mg/kg iv, 40 min) was 83.7 ± 15.6 mmHg. The “SBP—systolic blood pressure” value (normotensive rats; 2.5 mg/kg iv, 40 min) was 111.2 ± 22.3 mmHg, the “DBP—diastolic blood pressure” value (normotensive rats; 2.5 mg/kg iv, 50 min) was 81.2 ± 15.0 mmHg and the “SBP—systolic blood pressure” value (normotensive rats; 2.5 mg/kg iv, 50 min) was 107.7 ± 19.7 mmHg. The “DBP—diastolic blood pressure” value (normotensive rats; 2.5 mg/kg iv, 60 min) was 79.5 ± 15.4 mmHg, the “SBP—systolic blood pressure” value (normotensive rats; 2.5 mg/kg iv, 60 min) was 109.2 ± 21.9 mmHg and the “DBP—diastolic blood pressure” value (normotensive rats; [10]) was 101.5 ± 6.1 mmHg. The “SBP—systolic blood pressure” value (normotensive rats; [10]) was 128.5 ± 8.6 mmHg, the “decrease of the diastolic blood pressure” value (normotensive rats; 5 mg/kg iv, 5th min after administration) was 18% and the “decrease of the diastolic blood pressure” value (normotensive rats; 5 mg/kg iv, 10th min after administration) was 20%. For the same molecule, the “DBP—diastolic blood pressure” value (normotensive rats; 5.0 mg/kg iv, 5 min) was 83.2 ± 5.0 ^a mmHg, the “SBP—systolic blood pressure” value (normotensive rats; 5.0 mg/kg iv, 5 min) was 108.0 ± 6.6 ^d mmHg and the “DBP—diastolic blood pressure” value (normotensive rats; 5.0 mg/kg iv, 10 min) was 81.2 ± 4.0 ^a mmHg. For the same molecule, the “SBP—systolic blood pressure” value (normotensive rats; 5.0 mg/kg iv, 10 min) was 104.3 ± 6.3 ^d mmHg, the “DBP—diastolic blood pressure” value (normotensive rats; 5.0 mg/kg iv, 20 min) was 82.0 ± 4.2 mmHg and the “SBP—systolic blood pressure” value (normotensive rats; 5.0 mg/kg iv, 20 min) was 101.3 ± 4.5 ^d mmHg. The “DBP—diastolic blood pressure” value (normotensive rats; 5.0 mg/kg iv, 30 min) was 83.5 ± 4.3 mmHg, the “SBP—systolic blood pressure” value (normotensive rats; 5.0 mg/kg iv, 30 min) was 102.3 ± 6.9 ^d mmHg and the “DBP—diastolic blood pressure” value (normotensive rats; 5.0 mg/kg iv, 40 min) was 85.5 ± 5.8 mmHg. The “SBP—systolic blood pressure” value (normotensive rats; 5.0 mg/kg iv, 40 min) was 104.3 ± 3.9^b mmHg, the “DBP—diastolic blood pressure” value (normotensive rats; 5.0 mg/kg iv, 50 min) was 86.7 ± 6.0 mmHg and the “SBP—systolic blood pressure” value (normotensive rats; 5.0 mg/kg iv, 50 min) was 106.0 ± 7.9 ^c mmHg. For the same molecule, the “DBP—diastolic blood pressure” value (normotensive rats; 5.0 mg/kg iv, 60 min) was 87.5 ± 6.3 mmHg, the “SBP—systolic blood pressure” value (normotensive rats; 5.0 mg/kg iv, 60 min) was 107.3 ± 6.1 ^b mmHg and the “decrease of the systolic blood pressure” value (normotensive rats; 5 mg/kg iv, from the 5th to 60th min after administration) was 16–21%.
